Data: patent US20250249025A1, “DRUG DELIVERY CARRIER UTILIZING PROPERTY OF D-ALLOSE BEING UPTAKEN BY CANCER CELL, DRUG DELIVERY METHOD, AND COMPOSITION FOR TREATING RENAL CELL CARCINOMA” (NATIONAL UNIVERSITY CORPORATION KAGAWA UNIVERSITY, priority 2019, published 2025)

What was measured:
Assay type in all cases: cell-based
[1] = test system: human bladder carcinoma cell line RT112; test: Rare sugar uptake experiment, sugar content in disrupted cell suspension of RT112; conditions: RT112, 48 hours; for D-glucose content in cell: named sugar added to RPMI-1640 at 10 mM, HPLC after ABEE labeling
Method: (§1) An uptake amount of a rare sugar, which had been added to a medium, into carcinoma cells was analyzed using the cell lines of three types of cancers. As the rare sugar, four kinds, that is, D-allose, D-allulose (D-psicose), L-allulose (L-psicose), and allitol were used, while D-glucose and fructose were used as a monosaccharide which was not a rare sugar.
(§2) Cells of each of the cell lines were cultured in RPMI-1640 media and during culturing, six sugars were each added to the resulting media and cultured. After culturing, an amount of each sugar taken up into the cells was analyzed. The medium to which no sugar was added during culturing was used as a control.
(§3) Used were human bladder carcinoma cell lines (RT112, 253), and J82), human prostatic carcinoma cell lines (LNCa, Du145, and PC-3), and human renal cell carcinoma cell lines (ACHN, Caki-I, and Caki-II).
(§4) After cells were cultured in RPMI-1640 (2000 mg D-glucose/L) media, the above monosaccharides and rare sugars were added to the resulting media, respectively. Described specifically, they were following seven combinations: RPMI-1640 alone (control), RPMI-1640+D-glucose, RPMI-1640+L-allulose, RPMI-1640+D-allulose, RPMI-1640+D-fructose, RPMI-1640+D-allose, and RPMI-1640+D-allitol. The final concentration of the sugar in the medium was adjusted to 10 mM and no sugar was added in the control.
(§5) Five-ml portions of a 3.0×10^4 cells/ml cell suspension prepared using RPMI-1640 were seeded in dishes having a diameter of 6 cm (1.5×10^5 cells/dish) and cultured for 24 hours in the RPMI-1640 medium containing 2000 mg/l of D-glucose as a nutrient source. Twenty-four hours later, the media were changed to the culture solutions containing the monosaccharides and rare sugars described above in 2), respectively, followed by culturing for 48 hours.
(§6) After culturing for 48 hours, the attached human carcinoma cells were mechanically separated and collected in a Spitz tube together with the culture solution and floating cells. After the supernatant formed by centrifugation (4° C., 1200 rpm, and 5 minutes) was removed to obtain cell pellets alone, 5 ml of a phosphate buffer physiological saline (PBS) was added for the purpose of washing to obtain a cell suspension of the cell pellets. A gain, the resulting cell suspension was centrifuged at 4° C. and 1200 rpm for 5 minutes and the supernatant was removed. To the cell pellets after washing was added 1 ml of pure water to suspend them therein. Ultrasonic disruption (intensity: 40%, 30 seconds) was then performed and the monosaccharide in the disrupted cell suspension was labeled with ABEE, followed by analysis by HPLC. From the area thus obtained, the sugar content in the cells was determined using a calibration curve. With respect to the ketose, two peaks were found after labeling with ABEE so that the sugar content in the cells was determined from the calibration curves of both peaks.

[2] = test system: human bladder carcinoma cell line 253J; test: Rare sugar uptake experiment, sugar content in disrupted cell suspension of 253J; conditions: 253J, 48 hours; for D-glucose content in cell: named sugar added to RPMI-1640 at 10 mM, HPLC after ABEE labeling
Method: as §1, §2, §3, §4, §5, §6

[3] = test system: human bladder carcinoma cell line J82; test: Rare sugar uptake experiment, sugar content in disrupted cell suspension of J82; conditions: J82, 48 hours; for D-glucose content in cell: named sugar added to RPMI-1640 at 10 mM, HPLC after ABEE labeling
Method: as §1, §2, §3, §4, §5, §6

[4] = test system: human prostate carcinoma cell line LNCa; test: Rare sugar uptake experiment, sugar content in disrupted cell suspension of LNCa; conditions: LNCa, 48 hours; for D-glucose content in cell: named sugar added to RPMI-1640 at 10 mM, HPLC after ABEE labeling
Method: as §1, §2, §3, §4, §5, §6

[5] = test system: human prostate carcinoma cell line Du145; test: Rare sugar uptake experiment, sugar content in disrupted cell suspension of Du145; conditions: Du145, 48 hours; for D-glucose content in cell: named sugar added to RPMI-1640 at 10 mM, HPLC after ABEE labeling
Method: as §1, §2, §3, §4, §5, §6

[6] = test system: human prostate carcinoma cell line PC-3; test: Rare sugar uptake experiment, sugar content in disrupted cell suspension of PC-3; conditions: PC-3, 48 hours; for D-glucose content in cell: named sugar added to RPMI-1640 at 10 mM, HPLC after ABEE labeling
Method: as §1, §2, §3, §4, §5, §6

[7] = test system: human renal cell carcinoma cell line ACHN; test: Rare sugar uptake experiment, sugar content in disrupted cell suspension of ACHN; conditions: ACHN, 48 hours; for D-glucose content in cell: named sugar added to RPMI-1640 at 10 mM, HPLC after ABEE labeling
Method: as §1, §2, §3, §4, §5, §6

[8] = test system: human renal cell carcinoma cell line Caki-I; test: Rare sugar uptake experiment, sugar content in disrupted cell suspension of Caki-I; conditions: Caki-I, 48 hours; for D-glucose content in cell: named sugar added to RPMI-1640 at 10 mM, HPLC after ABEE labeling
Method: as §1, §2, §3, §4, §5, §6

[9] = test system: human renal cell carcinoma cell line Caki-II; test: Rare sugar uptake experiment, sugar content in disrupted cell suspension of Caki-II; conditions: Caki-II, 48 hours; for D-glucose content in cell: named sugar added to RPMI-1640 at 10 mM, HPLC after ABEE labeling
Method: as §1, §2, §3, §4, §5, §6

[10] = sugar added to RPMI-1640 at 10 mM, ketoses: range from two peaks

SMILES	D-glucose content in cell [1] [µg]	D-glucose content in cell [2] [µg]	D-glucose content in cell [3] [µg]	D-glucose content in cell [4] [µg]	D-glucose content in cell [5] [µg]	D-glucose content in cell [6] [µg]	D-glucose content in cell [7] [µg]	D-glucose content in cell [8] [µg]	D-glucose content in cell [9] [µg]	Content in cell of the added sugar [1, 10] [µg]	Content in cell of the added sugar [2, 10] [µg]	Content in cell of the added sugar [3, 10] [µg]	Content in cell of the added sugar [4, 10] [µg]	Content in cell of the added sugar [5, 10] [µg]	Content in cell of the added sugar [6, 10] [µg]	Content in cell of the added sugar [7, 10] [µg]	Content in cell of the added sugar [8, 10] [µg]	Content in cell of the added sugar [9, 10] [µg]
O=C(CO)[C@@H](O)[C@@H](O)[C@@H](O)CO [L-allulose]	3.9	0.5	1.9	10.2	2.5	1.5	2.1	2.3	1.7	–	–	–	–	–	–	–	–	–
O=C(CO)[C@H](O)[C@H](O)[C@H](O)CO [D-allulose]	3.4	0.6	2.1	7.5	3.9	1.6	1.9	2.3	3.1	–	–	–	–	–	–	–	–	–
OC[C@@H](O)[C@@H](O)[C@@H](O)[C@@H](O)CO [allitol]	3.6	0.5	2.4	9.2	4.5	2.1	1.8	2.4	4.3	–	–	–	–	–	–	–	–	–
O=C(CO)[C@@H](O)[C@H](O)[C@H](O)CO [D-fructose]	4.4	3.3	2.7	4.1	4.2	2.7	2.1	2.5	3.6	12.7 to 15.7	0.0	11.1 to 15.0	0.0	12.9 to 17.0	16.5 to 20.1	16.8 to 19.0	16.7 to 20.7	20.4 to 21.3
O=C[C@H](O)[C@@H](O)[C@H](O)[C@H](O)CO [D-glucose]	16.7	4.0	7.2	6.5	4.4	6.7	5.6	4.4	8.4	–	–	–	–	–	–	–	–	–
